Assay results published in PMC10447463, “Data-mining unveils structure–property–activity correlation of viral infectivity enhancing self-assembling peptides” (Nature Communications, 2023).
Where two headings read alike, the source gives them in different places.

What was measured:
[1] = Turbidity, derived count rate of scattered light; type: physicochemical; settings: for Count Rate: derived count rate of scattered light (turbidity); for Log10 Count Rate: turbidity, derived count rate of scattered light, data of Figure 2D
[2] = Zeta-potential measurement; type: physicochemical
Procedure, shortened: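 PBS pH 7.4, 1 mg/mL peptide (DMSO stock), 1 d RT aggregation; diluted in 1 mM KCl pre-read; mobility → zeta (Smoluchowski); n = 3, 2 expts averaged.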

[3] = Turbidity, derived count rate of scattered light; type: physicochemical; settings: for Count Rate / kcps: derived count rate of scattered light at 633 nm, 173°, from zeta-potential measurement, 0.1 mg/mL in 1 mM KCl after 1 d at 1 mg/mL in PBS, turbidity / microscopic aggregation, mean of triplicate
Procedure, shortened: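 One-day room-temperature aggregation at 1 mg/mL in PBS (pH 7.4) preceded measurement; samples then went into 1 mM KCl. Triplicates per sample, two independent experiments averaged.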

[4] = tested on: HIV-1 infection of TZM-bl cells; assay: HIV-1 infectivity enhancement assay, β-galactosidase luminescence; type: cell-based; settings: for Rel-EFC / Log10 Infection Rel EFC: 1.3 µM peptide; for Rel-EFC: infection relative to EF-C (QCKIKQIINMWQ = 1); for Log10 Infection Rel EFC: log10 of infection relative to EF-C; for Log Infectivity: Log10 infection relative to EF-C, asymmetric std dev errors; for Log Infectivity / Abs. Inf.: TZM-bl cells; for Log10 Infection Rel EF-C: HIV-1 infection of TZM-bl cells; for Log10 of Rel to EFC (Feb2021): Log10 of infection relative to EF-C, all peptides of FigS16; for Abs. Inf.: absolute HIV-1 infection signal, β-galactosidase luminescence
[5] = β-sheet content by ATR-FT-IR; type: physicochemical; settings: Fig. S7 panel A; β-sheet content by ATR-FT-IR
Procedure, shortened: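 Measurements on freeze-dried PNF powders used a diamond ATR element, 64 scans each, with β-sheet fraction derived as previously reported. CR reflects loss of fluorescamine-reactive monomer after 3 kDa ultrafiltration, averaged over triplicates.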

[6] = zeta-potential of peptide, source data of Figure 2C
[7] = zeta-potential of the peptide assemblies, mean, Figure 3A source data
[8] = Log10 of derived count rate of scattered light (turbidity)
[9] = log10 of derived count rate of scattered light (turbidity)
[10] = turbidity, Log10 of derived count rate of scattered light, Figure 3A source data
[11] = Fig. S7 panel A (plotted against β-sheet content)
[12] = Log10 of infection rate relative to EF-C, Figure 3A source data
[13] = infection rate relative to EF-C, log10, data of Figure 2D
[14] = infection rate relative to EF-C, log10, source data of Figure 2C
[15] = zeta potential of peptide assemblies
[16] = Fig. S7 panel B (plotted against CR), rounded to two decimals

Substance | Count Rate [1] | Log10 Count Rate [1] | Zeta-Pot. [2] | Zeta-Potential / mV [2, 6] | Zeta-Potential / mV [2, 7] | Log10 Count Rate [3, 8] | Count Rate / kcps [3] | Log10 Count Rate [3, 9] | Log10 Count Rate [3, 10] | Rel-EFC [4] | Log10 Infection Rel EFC [4] | Log Infectivity [4, 11] | Log10 Infection Rel EF-C [4, 12] | Log10 Infection Rel EF-C [4, 13] | Log10 Infection Rel EF-C [4, 14] | Log10 of Rel to EFC (Feb2021) [4] | Abs. Inf. [4] | b -sheet / % [5] | Zeta-Pot. [2, 15] | Log Infectivity [4, 16]
KIKIKIQINMWQ | 1603.1 | 3.205 | 13.1 | 13 mV | 13.1 mV | 3.205 | 1603 kcps | 3.205 | 3.205 | 0,79 | -0,1 | -0.1048 | -0.1 | -0.1048 | -0.1048 | -0.1 | 20353.33333 | 39.61% | – | –
KVKVQVV | 27.73 | 1.443 | – | -4.675 mV | -7.92 mV | 1.443 | 28 kcps | 1.443 | 1.443 | 0,01 | -2,04 | -2.04 | -2.04 | -2.04 | -2.04 | – | – | 45.1% | -7.92 | –
RGDKIKIQIC | 7509 | 3.876 | – | 17.27 mV | 16.5 mV | 3.876 | 7509 kcps | 3.876 | 3.876 | 0,83 | -0,08 | -0.07993 | -0.08 | -0.07993 | -0.07993 | -0.08 | – | 40.73% | 16.5 | -0.08
CKIW | 3.2 | 0.5051 | -3.71 | -2.772 mV | -3.71 mV | 0.5051 | 3 kcps | 0.5051 | 0.5051 | 0,05 | -1,29 | -1.286 | -1.29 | -1.286 | -1.286 | – | 290 | 46.02% | – | -1.29
RGDCKIKIQINM | 1623 | 3.2102 | – | 12.35 mV | 11.3 mV | 3.2102 | 1623 kcps | 3.2102 | 3.2102 | 0,24 | -0,63 | -0.6272 | -0.63 | -0.6272 | -0.6272 | -0.63 | – | 43% | 11.3 | –
CEIEIQINM | 58.43 | 1.767 | – | -22.07 mV | -15.3 mV | 1.767 | 58 kcps | 1.767 | 1.767 | 0,07 | -1,19 | -1.186 | -1.19 | -1.186 | -1.186 | – | – | 46.31% | -15.3 | -1.19
